Assay results reported in patent publication US8772480B2, “Inhibitors of PI3 kinase and/or mTOR” (priority 2009, dated 2014).

What was measured:
Assay type in all cases: biochemical
[1] = target: ProfilerPro Kinase Selectivity Assay Kit kinases (Homo sapiens, UniProt O00141); conditions: SGK1; 1 μM compound concentration
Procedure: (§1) Compounds were profiled using a LabChip® EZ Reader II platform and a ProfilerPro Kinase Selectivity Assay Kit (Caliper Lifesciences Inc., Hopkinton, Mass.). Compounds were tested at a concentration of 1 M in duplicate, with mean data reported as percent of control (POC).

[2] = target: ProfilerPro Kinase Selectivity Assay Kit kinases (Homo sapiens, UniProt P08069); conditions: IGF1R; 1 μM compound concentration
Procedure: as §1

[3] = tested on: ProfilerPro Kinase Selectivity Assay Kit kinases; conditions: 1 μM compound concentration
Procedure: as §1

[4] = target: ProfilerPro Kinase Selectivity Assay Kit kinases (Homo sapiens, UniProt P00519); conditions: ABL; 1 μM compound concentration
Procedure: as §1

[5] = target: ProfilerPro Kinase Selectivity Assay Kit kinases (Homo sapiens, UniProt Q13976); conditions: PKGa2; 1 μM compound concentration
Procedure: as §1

[6] = target: ProfilerPro Kinase Selectivity Assay Kit kinases (Homo sapiens, UniProt P36888); conditions: FLT3; 1 μM compound concentration
Procedure: as §1

[7] = target: ProfilerPro Kinase Selectivity Assay Kit kinases (Homo sapiens, UniProt P23443); conditions: p70S6K; 1 μM compound concentration
Procedure: as §1

[8] = target: ProfilerPro Kinase Selectivity Assay Kit kinases (Homo sapiens, UniProt P12931); conditions: SRC; 1 μM compound concentration
Procedure: as §1

[9] = target: ProfilerPro Kinase Selectivity Assay Kit kinases (Homo sapiens, UniProt Q16539); conditions: p38 alpha; 1 μM compound concentration
Procedure: as §1

[10] = target: ProfilerPro Kinase Selectivity Assay Kit kinases (Homo sapiens, UniProt P11362); conditions: FGFR1; 1 μM compound concentration
Procedure: as §1

[11] = target: ProfilerPro Kinase Selectivity Assay Kit kinases (Homo sapiens, UniProt P49841); conditions: GSK3 beta; 1 μM compound concentration
Procedure: as §1

[12] = target: ProfilerPro Kinase Selectivity Assay Kit kinases (Homo sapiens, UniProt P35968); conditions: KDR; 1 μM compound concentration
Procedure: as §1

[13] = target: ProfilerPro Kinase Selectivity Assay Kit kinases (Homo sapiens, UniProt P24941); conditions: CDK2; 1 μM compound concentration
Procedure: as §1

[14] = target: ProfilerPro Kinase Selectivity Assay Kit kinases (Homo sapiens, UniProt O75582); conditions: MSK1; 1 μM compound concentration
Procedure: as §1

[15] = target: ProfilerPro Kinase Selectivity Assay Kit kinases (Homo sapiens, UniProt P08581); conditions: cMET; 1 μM compound concentration
Procedure: as §1

[16] = target: ProfilerPro Kinase Selectivity Assay Kit kinases (Homo sapiens, UniProt O96017); conditions: CHK2; 1 μM compound concentration
Procedure: as §1

[17] = target: ProfilerPro Kinase Selectivity Assay Kit kinases (Homo sapiens, UniProt Q13188); conditions: MST2; 1 μM compound concentration
Procedure: as §1

[18] = target: ProfilerPro Kinase Selectivity Assay Kit kinases (Homo sapiens, UniProt P27361); conditions: ERK1; 1 μM compound concentration
Procedure: as §1

[19] = target: ProfilerPro Kinase Selectivity Assay Kit kinases (Homo sapiens, UniProt P06241); conditions: FYN; 1 μM compound concentration
Procedure: as §1

[20] = target: ProfilerPro Kinase Selectivity Assay Kit kinases (Homo sapiens, UniProt O14965); conditions: AURORA A; 1 μM compound concentration
Procedure: as §1

[21] = target: ProfilerPro Kinase Selectivity Assay Kit kinases (Homo sapiens, UniProt P06239); conditions: LCK; 1 μM compound concentration
Procedure: as §1

[22] = target: ProfilerPro Kinase Selectivity Assay Kit kinases (Homo sapiens, UniProt P43405); conditions: SYK; 1 μM compound concentration
Procedure: as §1

[23] = target: ProfilerPro Kinase Selectivity Assay Kit kinases (Homo sapiens, UniProt P07948); conditions: LYN; 1 μM compound concentration
Procedure: as §1

[24] = target: ProfilerPro Kinase Selectivity Assay Kit kinases (Homo sapiens, UniProt P28482); conditions: ERK2; 1 μM compound concentration
Procedure: as §1

[25] = target: ProfilerPro Kinase Selectivity Assay Kit kinases (Homo sapiens, UniProt Q05513); conditions: PKC zeta; 1 μM compound concentration
Procedure: as §1

[26] = target: ProfilerPro Kinase Selectivity Assay Kit kinases (Homo sapiens, UniProt P31749); conditions: AKT1; 1 μM compound concentration
Procedure: as §1

[27] = target: ProfilerPro Kinase Selectivity Assay Kit kinases (Homo sapiens, UniProt P04049); conditions: cRAF; 1 μM compound concentration
Procedure: as §1

[28] = target: ProfilerPro Kinase Selectivity Assay Kit kinases (Homo sapiens, UniProt Q15418); conditions: RSK1; 1 μM compound concentration
Procedure: as §1

[29] = target: ProfilerPro Kinase Selectivity Assay Kit kinases (Homo sapiens, UniProt Q16566); conditions: CAMK4; 1 μM compound concentration
Procedure: as §1

[30] = target: ProfilerPro Kinase Selectivity Assay Kit kinases (Homo sapiens, UniProt Q9BZL6); conditions: PKD2; 1 μM compound concentration
Procedure: as §1

[31] = target: ProfilerPro Kinase Selectivity Assay Kit kinases (Homo sapiens, UniProt Q13627); conditions: DYRK1a; 1 μM compound concentration
Procedure: as §1

Chain of ProfilerPro Kinase Selectivity Assay Kit kinases (Homo sapiens, UniProt P28482) (P28482 2-360 limits assumed): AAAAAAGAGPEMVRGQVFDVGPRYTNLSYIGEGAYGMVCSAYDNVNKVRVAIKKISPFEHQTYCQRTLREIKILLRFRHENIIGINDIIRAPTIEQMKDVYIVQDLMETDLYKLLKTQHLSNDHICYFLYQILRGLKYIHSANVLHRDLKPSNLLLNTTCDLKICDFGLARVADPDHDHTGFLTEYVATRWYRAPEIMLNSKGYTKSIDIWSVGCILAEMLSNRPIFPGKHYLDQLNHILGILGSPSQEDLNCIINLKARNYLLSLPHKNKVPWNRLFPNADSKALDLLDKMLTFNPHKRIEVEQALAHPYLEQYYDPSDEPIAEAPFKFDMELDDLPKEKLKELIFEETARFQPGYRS
Chain of ProfilerPro Kinase Selectivity Assay Kit kinases (Homo sapiens, UniProt P12931) (P12931 2-536 limits assumed): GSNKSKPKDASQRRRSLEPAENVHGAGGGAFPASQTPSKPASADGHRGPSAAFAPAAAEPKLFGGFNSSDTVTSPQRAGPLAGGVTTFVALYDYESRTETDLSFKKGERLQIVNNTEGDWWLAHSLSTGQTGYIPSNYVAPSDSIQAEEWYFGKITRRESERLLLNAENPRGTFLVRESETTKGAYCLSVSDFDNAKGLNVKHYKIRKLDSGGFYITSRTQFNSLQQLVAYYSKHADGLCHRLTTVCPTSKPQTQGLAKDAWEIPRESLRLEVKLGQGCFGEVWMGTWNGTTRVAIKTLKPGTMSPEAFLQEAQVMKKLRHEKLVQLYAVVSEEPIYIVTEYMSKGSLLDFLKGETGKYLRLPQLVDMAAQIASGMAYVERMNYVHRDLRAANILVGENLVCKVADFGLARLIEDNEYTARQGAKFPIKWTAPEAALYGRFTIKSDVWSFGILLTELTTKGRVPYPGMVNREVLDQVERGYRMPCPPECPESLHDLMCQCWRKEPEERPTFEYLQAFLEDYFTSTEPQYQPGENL
Chain of ProfilerPro Kinase Selectivity Assay Kit kinases (Homo sapiens, UniProt P06241) (P06241 2-537 limits assumed): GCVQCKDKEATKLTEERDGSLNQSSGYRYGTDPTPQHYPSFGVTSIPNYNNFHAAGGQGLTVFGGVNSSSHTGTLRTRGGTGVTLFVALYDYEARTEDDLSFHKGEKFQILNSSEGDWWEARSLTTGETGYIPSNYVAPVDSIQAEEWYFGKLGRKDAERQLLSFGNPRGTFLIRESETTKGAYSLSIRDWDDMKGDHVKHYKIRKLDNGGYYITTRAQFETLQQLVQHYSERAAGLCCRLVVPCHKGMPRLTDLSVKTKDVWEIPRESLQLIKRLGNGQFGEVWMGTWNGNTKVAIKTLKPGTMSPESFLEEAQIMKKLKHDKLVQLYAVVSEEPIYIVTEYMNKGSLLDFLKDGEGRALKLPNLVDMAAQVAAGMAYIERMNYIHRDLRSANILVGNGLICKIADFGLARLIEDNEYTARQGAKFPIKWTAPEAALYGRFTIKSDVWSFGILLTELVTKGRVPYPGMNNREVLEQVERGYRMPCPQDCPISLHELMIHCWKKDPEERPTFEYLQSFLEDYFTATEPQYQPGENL
Chain of ProfilerPro Kinase Selectivity Assay Kit kinases (Homo sapiens, UniProt P36888) (P36888 27-993 limits assumed): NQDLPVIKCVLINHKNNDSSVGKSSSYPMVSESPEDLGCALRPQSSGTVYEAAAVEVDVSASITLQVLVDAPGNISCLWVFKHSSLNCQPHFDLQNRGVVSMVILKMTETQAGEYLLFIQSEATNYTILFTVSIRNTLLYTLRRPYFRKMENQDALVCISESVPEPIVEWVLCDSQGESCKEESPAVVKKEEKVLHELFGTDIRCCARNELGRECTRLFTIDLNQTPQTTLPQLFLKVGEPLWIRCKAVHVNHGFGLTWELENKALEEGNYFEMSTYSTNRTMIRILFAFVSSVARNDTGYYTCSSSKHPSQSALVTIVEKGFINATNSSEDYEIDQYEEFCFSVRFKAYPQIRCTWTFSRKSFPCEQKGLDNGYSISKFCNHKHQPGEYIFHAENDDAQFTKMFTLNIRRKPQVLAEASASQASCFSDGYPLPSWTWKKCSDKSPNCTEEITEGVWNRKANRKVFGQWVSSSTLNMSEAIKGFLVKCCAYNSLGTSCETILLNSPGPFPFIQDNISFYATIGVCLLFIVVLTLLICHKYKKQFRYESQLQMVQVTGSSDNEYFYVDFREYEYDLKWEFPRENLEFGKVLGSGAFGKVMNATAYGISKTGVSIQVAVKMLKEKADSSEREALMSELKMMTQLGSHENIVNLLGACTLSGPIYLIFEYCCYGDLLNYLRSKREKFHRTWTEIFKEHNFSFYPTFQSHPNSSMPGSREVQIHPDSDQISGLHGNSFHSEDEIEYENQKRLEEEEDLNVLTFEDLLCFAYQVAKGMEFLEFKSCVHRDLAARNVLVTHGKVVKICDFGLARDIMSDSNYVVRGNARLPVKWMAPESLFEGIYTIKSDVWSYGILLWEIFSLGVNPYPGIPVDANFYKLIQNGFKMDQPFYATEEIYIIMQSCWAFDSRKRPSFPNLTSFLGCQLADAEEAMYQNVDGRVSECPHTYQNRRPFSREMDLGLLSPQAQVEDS
Chain of ProfilerPro Kinase Selectivity Assay Kit kinases (Homo sapiens, UniProt P11362) (P11362 22-822 limits assumed): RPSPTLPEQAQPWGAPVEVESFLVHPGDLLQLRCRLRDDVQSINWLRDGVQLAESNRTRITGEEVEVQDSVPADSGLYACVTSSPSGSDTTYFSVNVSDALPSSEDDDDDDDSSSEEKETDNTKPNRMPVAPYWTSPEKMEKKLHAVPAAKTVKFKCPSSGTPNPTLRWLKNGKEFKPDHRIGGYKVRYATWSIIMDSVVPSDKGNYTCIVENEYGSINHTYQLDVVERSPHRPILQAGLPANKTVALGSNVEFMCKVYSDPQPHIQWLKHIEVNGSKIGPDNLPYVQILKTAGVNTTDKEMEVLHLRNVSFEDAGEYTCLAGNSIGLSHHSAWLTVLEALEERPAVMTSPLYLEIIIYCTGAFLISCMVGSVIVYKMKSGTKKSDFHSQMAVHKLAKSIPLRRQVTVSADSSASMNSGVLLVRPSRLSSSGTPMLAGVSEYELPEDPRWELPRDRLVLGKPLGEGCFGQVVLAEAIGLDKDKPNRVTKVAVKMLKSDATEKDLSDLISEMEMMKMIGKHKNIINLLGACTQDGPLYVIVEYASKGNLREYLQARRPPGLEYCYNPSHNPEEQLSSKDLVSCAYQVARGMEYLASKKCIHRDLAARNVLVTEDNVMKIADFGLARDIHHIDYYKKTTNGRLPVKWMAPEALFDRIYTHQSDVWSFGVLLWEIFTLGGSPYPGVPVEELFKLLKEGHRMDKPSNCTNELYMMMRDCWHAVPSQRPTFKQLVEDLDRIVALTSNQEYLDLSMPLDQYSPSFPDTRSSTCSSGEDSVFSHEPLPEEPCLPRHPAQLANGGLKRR
Chain of ProfilerPro Kinase Selectivity Assay Kit kinases (Homo sapiens, UniProt P27361) (P27361 2-379 limits assumed): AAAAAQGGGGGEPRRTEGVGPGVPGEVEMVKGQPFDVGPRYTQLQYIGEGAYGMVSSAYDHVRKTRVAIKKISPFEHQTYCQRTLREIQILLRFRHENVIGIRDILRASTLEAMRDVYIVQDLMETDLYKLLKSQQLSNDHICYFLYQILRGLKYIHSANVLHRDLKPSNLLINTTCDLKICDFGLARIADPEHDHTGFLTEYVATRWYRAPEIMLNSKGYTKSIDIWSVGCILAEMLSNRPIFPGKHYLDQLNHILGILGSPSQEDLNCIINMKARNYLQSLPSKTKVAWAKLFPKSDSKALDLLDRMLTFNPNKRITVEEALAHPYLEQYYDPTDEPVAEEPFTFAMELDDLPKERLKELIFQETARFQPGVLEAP
Chain of ProfilerPro Kinase Selectivity Assay Kit kinases (Homo sapiens, UniProt P08581) (P08581 25-1390 limits assumed): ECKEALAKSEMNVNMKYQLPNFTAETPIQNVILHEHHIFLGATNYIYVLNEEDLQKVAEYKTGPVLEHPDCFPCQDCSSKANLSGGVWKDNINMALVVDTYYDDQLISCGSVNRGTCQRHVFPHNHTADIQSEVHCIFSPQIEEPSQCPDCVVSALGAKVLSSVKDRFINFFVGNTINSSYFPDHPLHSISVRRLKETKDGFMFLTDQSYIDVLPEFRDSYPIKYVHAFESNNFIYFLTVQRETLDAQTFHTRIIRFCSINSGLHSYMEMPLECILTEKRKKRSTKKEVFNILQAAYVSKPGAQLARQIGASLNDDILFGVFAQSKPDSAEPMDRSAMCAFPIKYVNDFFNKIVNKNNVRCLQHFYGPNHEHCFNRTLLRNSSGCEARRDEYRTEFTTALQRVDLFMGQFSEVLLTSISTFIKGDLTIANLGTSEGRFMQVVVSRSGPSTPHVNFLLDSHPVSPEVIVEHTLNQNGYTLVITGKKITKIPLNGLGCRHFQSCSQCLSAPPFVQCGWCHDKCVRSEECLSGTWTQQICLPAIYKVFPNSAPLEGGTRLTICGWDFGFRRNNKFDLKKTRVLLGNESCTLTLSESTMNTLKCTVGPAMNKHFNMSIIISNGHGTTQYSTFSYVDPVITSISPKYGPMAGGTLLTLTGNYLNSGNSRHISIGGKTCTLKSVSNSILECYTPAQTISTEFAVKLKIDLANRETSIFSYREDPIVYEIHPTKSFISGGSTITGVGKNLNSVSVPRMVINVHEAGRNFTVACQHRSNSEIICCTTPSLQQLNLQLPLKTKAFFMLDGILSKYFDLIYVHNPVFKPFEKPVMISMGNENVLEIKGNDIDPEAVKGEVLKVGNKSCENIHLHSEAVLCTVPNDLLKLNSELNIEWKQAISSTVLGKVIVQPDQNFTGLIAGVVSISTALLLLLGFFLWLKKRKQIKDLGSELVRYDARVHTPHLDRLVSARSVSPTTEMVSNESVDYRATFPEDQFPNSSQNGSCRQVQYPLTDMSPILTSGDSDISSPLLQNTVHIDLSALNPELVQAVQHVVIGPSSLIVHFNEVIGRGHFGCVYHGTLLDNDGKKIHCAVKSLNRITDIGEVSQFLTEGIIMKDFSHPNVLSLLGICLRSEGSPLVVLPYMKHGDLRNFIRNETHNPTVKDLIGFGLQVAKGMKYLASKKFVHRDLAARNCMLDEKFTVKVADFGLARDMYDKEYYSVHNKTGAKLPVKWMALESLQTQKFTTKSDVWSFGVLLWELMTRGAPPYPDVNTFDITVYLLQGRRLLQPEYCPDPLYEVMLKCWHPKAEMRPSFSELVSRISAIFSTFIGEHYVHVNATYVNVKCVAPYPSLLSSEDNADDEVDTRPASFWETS

Compound | POC (Percent of control) SGK1 [1] [POC] | POC (Percent of control) IGF1R [2] [POC] | POC (Percent of control) AMPK [3] [POC] | POC (Percent of control) CAMK2 [3] [POC] | POC (Percent of control) PKC beta2 [3] [POC] | POC (Percent of control) TAK1 [3] [POC] | POC (Percent of control) ABL [4] [POC] | POC (Percent of control) PKGa2 [5] [POC] | POC (Percent of control) FLT3 [6] [POC] | POC (Percent of control) p70S6K [7] [POC] | POC (Percent of control) SRC [8] [POC] | POC (Percent of control) p38 alpha [9] [POC] | POC (Percent of control) FGFR1 [10] [POC] | POC (Percent of control) GSK3 beta [11] [POC] | POC (Percent of control) KDR [12] [POC] | POC (Percent of control) CDK2 [13] [POC] | POC (Percent of control) MSK1 [14] [POC] | POC (Percent of control) cMET [15] [POC] | POC (Percent of control) CHK2 [16] [POC] | POC (Percent of control) MST2 [17] [POC] | also measured
Cc1cnc(Nc2cccc3[nH]ccc23)c(-c2nc(C)nc(N)n2)c1 [Example 46, N-(3-(4-Amino-6-Methyl-1,3,5-Triazin-2-yl)-5-Methylpyridin-2-yl)-1H-Indol-4-Amine] | 89 | 78 | 91 | 105 | 96 | 98 | 97 | 95 | 99 | 90 | 96 | 96 | 98 | 95 | 90 | 97 | 103 | 104 | 101 | 96 | POC (Percent of control) ERK1 [18]: 92 POC; POC (Percent of control) FYN [19]: 101 POC; POC (Percent of control) AURORA A [20]: 31 POC; POC (Percent of control) LCK [21]: 96 POC; POC (Percent of control) SYK [22]: 104 POC; POC (Percent of control) LYN [23]: 96 POC; POC (Percent of control) ERK2 [24]: 116 POC; POC (Percent of control) PKC zeta [25]: 198 POC; POC (Percent of control) AKT1 [26]: 93 POC; POC (Percent of control) cRAF [27]: 91 POC; POC (Percent of control) RSK1 [28]: 100 POC; POC (Percent of control) CAMK4 [29]: 96 POC; POC (Percent of control) PKD2 [30]: 106 POC; POC (Percent of control) DYRK1a [31]: 96 POC
CCc1cnc(Nc2ccc(OC)nc2)c(-c2nc(C)nc3[nH]cnc23)c1 [Example 74, 5-ethyl-N-(6-methoxypyridin-3-yl)-3-(2-methyl-9H-purin-6-yl)pyridin-2-amine] | 108 | 93 | 100 | 106 | 94 | 98 | 103 | 92 | 122 | 98 | 99 | 101 | 99 | 100 | 97 | 96 | 98 | 102 | 98 | 98 | POC (Percent of control) ERK1 [18]: 99 POC; POC (Percent of control) FYN [19]: 104 POC; POC (Percent of control) AURORA A [20]: 102 POC; POC (Percent of control) LCK [21]: 98 POC; POC (Percent of control) SYK [22]: 97 POC; POC (Percent of control) LYN [23]: 97 POC; POC (Percent of control) ERK2 [24]: 101 POC; POC (Percent of control) PKC zeta [25]: 94 POC; POC (Percent of control) AKT1 [26]: 109 POC; POC (Percent of control) cRAF [27]: 101 POC; POC (Percent of control) RSK1 [28]: 100 POC; POC (Percent of control) CAMK4 [29]: 95 POC; POC (Percent of control) PKD2 [30]: 99 POC; POC (Percent of control) DYRK1a [31]: 100 POC
c1cnc(Nc2cccc3[nH]ncc23)c(-c2ncnc3[nH]cnc23)c1 [Example 18, N-(3-(9H-Purin-6-yl)Pyridin-2-yl)-1H-Indazol-4-Amine] | 97 | 64 | 83 | 90 | 91 | 97 | 77 | 90 | 106 | 98 | 93 | 86 | 62 | 92 | 89 | 91 | 97 | 104 | 94 | 96 | POC (Percent of control) ERK1 [18]: 104 POC; POC (Percent of control) FYN [19]: 86 POC; POC (Percent of control) AURORA A [20]: 84 POC; POC (Percent of control) LCK [21]: 72 POC; POC (Percent of control) SYK [22]: 63 POC; POC (Percent of control) LYN [23]: 81 POC; POC (Percent of control) ERK2 [24]: 96 POC; POC (Percent of control) PKC zeta [25]: 102 POC; POC (Percent of control) AKT1 [26]: 103 POC; POC (Percent of control) cRAF [27]: 1 POC; POC (Percent of control) RSK1 [28]: 96 POC; POC (Percent of control) CAMK4 [29]: 71 POC; POC (Percent of control) PKD2 [30]: 97 POC; POC (Percent of control) DYRK1a [31]: 59 POC
